Reference: US20040044000A1, “Isoquinoline derivatives as matrix metalloproteinase inhibitors” (priority 2002, published 2004)

Columns and labels:
Assay type in all cases: biochemical
[1] = target: T1, MMP-13 catalytic domain (MMP-13CD) (Homo sapiens, UniProt P45452); assay: Inhibition of MMP-13 catalytic domain (thiopeptolide substrate hydrolysis); conditions: Biological Table 1; read-out: MMP-13CD IC50
T1 construct: use the catalytic domain of the MMP-13 enzyme, namely matrix metalloproteinase-13 catalytic domain (“MMP-13CD”), rather than the corresponding full-length enzyme
Method in brief: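 Catalytic domain of MMP-13 (MMP-13CD) with 100 μM Ac-Pro-Leu-Gly-thioester-Leu-Leu-Gly-OEt in 50 mM HEPES pH 7.0, 10 mM CaCl2, 1 mM DTNB at 22° C. Hydrolysis followed by absorbance at 405 nm; IC50 (μM) from multiple compound concentrations.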

[2] = target: MMP-3 catalytic domain (MMP-3CD) (Homo sapiens, UniProt P08254); assay: Inhibition of MMP-3 catalytic domain (thiopeptolide substrate hydrolysis, MES pH 6.0)
Source text: (§1) The assays measure the amount by which a test compound reduces the hydrolysis of a thiopeptolide substrate catalyzed by a matrix metalloproteinase enzyme. Such assays are described in detail by Ye et al., in Biochemistry, 1992;31(45):11231-11235, which is incorporated herein by reference. One such assay is described below in Biological Method 1.
(§2) Thiopeptolide substrates show virtually no decomposition or hydrolysis at or below neutral pH in the absence of a matrix metalloproteinase enzyme. A typical thiopeptolide substrate commonly utilized for assays is Ac-Pro-Leu-Gly-thioester-Leu-Leu-Gly-OEt. A 100 μL assay mixture will contain 50 mM of N-2-hydroxyethylpiperazine-N′-2-ethanesulfonic acid buffer (“HEPES,” pH 7.0), 10 mM CaCl2, 100 μM thiopeptolide substrate, and 1 mM 5,5′-dithio-bis-(2-nitro-benzoic acid) (DTNB). The thiopeptolide substrate concentration may be varied, for example from 10 to 800 μM to obtain Km and Kcat values. The change in absorbance at 405 nm is monitored on a Thermo Max microplate reader (molecular Devices, Menlo Park, Calif.) at room temperature (22° C.). The calculation of the amount of hydrolysis of the thiopeptolide substrate is based on E412=13600 M^−1 cm^−1 for the DTNB-derived product 3-carboxy-4-nitrothiophenoxide. Assays are carried out with and without matrix metalloproteinase inhibitor compounds, and the amount of hydrolysis is compared for a determination of inhibitory activity of the test compounds.
(§3) Test compounds were evaluated at various concentrations in order to determine their respective IC50 values, the micromolar concentration of compound required to cause a 50% inhibition of catalytic activity of the respective enzyme.
It should be appreciated that the assay buffer used with MMP-3CD was 50 mM N-morpholinoethane sulfonate (“MES”) at pH 6.0 rather than the HEPES buffer at pH 7.0 described above.

[3] = target: T2, MMP-12 catalytic domain (MMP-12CD) (Homo sapiens, UniProt P39900); assay: Inhibition of MMP-12 catalytic domain (thiopeptolide substrate hydrolysis)
T2 construct: MMP-3 catalytic domain, MMP-12 catalytic domain, MMP-14 catalytic domain, and MMP-17 catalytic domain
Source text: as §1, §2, §3
(§4) The test described above for the inhibition of MMP-13 may also be adapted and used to determine the ability of the compounds of Formula I to inhibit the matrix metalloproteases MMP-1, MMP-2, MMP-3, MMP-7, MMP-9, MMP-12 and MMP-14.

[4] = target: MMP-14 catalytic domain (MMP-14CD) (Homo sapiens, UniProt P50281); assay: Inhibition of MMP-14 catalytic domain (thiopeptolide substrate hydrolysis)
Source text: as §1, §2, §3, §4

[5] = target: T3, MMP-17 catalytic domain (MMP-17CD) (Homo sapiens, UniProt Q9ULZ9); assay: Inhibition of MMP-17 catalytic domain (thiopeptolide substrate hydrolysis)
T3 construct: MMP-3 catalytic domain, MMP-12 catalytic domain, MMP-14 catalytic domain, and MMP-17 catalytic domain
T3 sequence (Q9ULZ9 126-295 limits assumed): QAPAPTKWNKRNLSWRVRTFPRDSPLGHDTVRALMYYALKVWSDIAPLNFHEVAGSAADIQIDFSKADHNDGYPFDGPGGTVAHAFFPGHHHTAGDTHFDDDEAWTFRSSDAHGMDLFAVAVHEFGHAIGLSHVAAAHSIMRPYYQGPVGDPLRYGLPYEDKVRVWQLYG
Source text: as §1, §2, §3

Sequence of MMP-3 catalytic domain (MMP-3CD) (P08254 100-272 limits assumed, species assumed): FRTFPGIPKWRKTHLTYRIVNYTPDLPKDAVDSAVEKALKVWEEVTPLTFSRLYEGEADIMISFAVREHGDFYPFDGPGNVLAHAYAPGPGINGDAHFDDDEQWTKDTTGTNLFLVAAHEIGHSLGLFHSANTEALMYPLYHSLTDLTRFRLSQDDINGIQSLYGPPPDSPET
T2 sequence (P39900 106-263 limits assumed, species assumed): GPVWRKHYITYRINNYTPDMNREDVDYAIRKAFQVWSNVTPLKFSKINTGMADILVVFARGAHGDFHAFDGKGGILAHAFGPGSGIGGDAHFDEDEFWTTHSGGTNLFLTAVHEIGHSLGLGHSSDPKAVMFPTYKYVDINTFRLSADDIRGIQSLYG

Row | IC50 [1] [µM] | IC50 [2] [µM] | IC50 [3] [µM] | IC50 [4] [µM] | IC50 [5] [µM] | SMILES
1 | 0.049 | 5 | > 100 | 28 | > 100 | N#Cc1ccc(Cn2ccc3ccc(C#CCc4ccccc4)cc3c2=O)cc1 [Example 19]
2 | 0.067 | 22 | > 100 | > 100 | > 3 | O=C(NCCN1CCOCC1)c1ccc(Cn2ccc3ccc(C#CCc4ccccc4)cc3c2=O)cc1 [Example 21, N-(2-morpholin-4-yl-ethyl)-4-[1-oxo-7-(3-phenylprop-1-ynyl)-1H-isoquinolin-2-ylmethyl]-benzamide]
